Results as given in US20250215493A1, “NUCLEOTIDES WITH ENZYMATICALLY CLEAVABLE 3'-O-GLYCOSIDE BLOCKING GROUPS FOR SEQUENCING” (Illumina, Inc., priority 2023, published 2025).

What was measured:
[1] = tested on: α-Mannosidase 92S, Bacteroides thetaiotaomicron; assay: Cleavage of 3′-glycoside thymidine by glycosyl hydrolases (HPLC); assay type: biochemical; details: 100 mM HEPES pH 7.0, 2 mM CaCl2, 37° C.
Experimental: (§1) The cleavage of the 3′-glycoside moiety from 3′-(β)-glucopyranoside thymidine, 3′-(β)-xylopyranoside thymidine and 3′-(α)-mannopyranoside thymidine using glycosyl hydrolases was tested by incubating the nucleoside substrate (200 μM) with the enzyme (2 μM) in buffer. At set timepoints, 50 μL aliquots of the reaction solution were taken and quenched with 50 μL of either 0.1 M EDTA or […]. The aliquots were then analysed by reverse phase HPLC (YMC-Triart C18 Column, 12 nm, 5 μm, 250×4.6 mm column) using a gradient from 0% to 8% acetonitrile in 0.1 M TEAB over 25 minutes, monitoring the disappearance of the 3′-glycopyranoside thymidine substrate peak and the appearance of the thymidine product peak.

[2] = tested on: α-Mannosidase 92B, Bacteroides thetaiotaomicron; assay: as above; assay type: biochemical; details: 100 mM HEPES pH 7.0, 2 mM CaCl2, 37° C.
Experimental: as §1

[3] = tested on: β-Glucosidase 3B, Cellvibrio japonicus; assay: as above; assay type: biochemical; details: 37° C.
Experimental: as §1

[4] = tested on: β-Glucosidase 1A, Thermus thermophilus; assay: as above; assay type: biochemical; details: 100 mM sodium citrate pH 6.5, 50° C.; 200 μM substrate, 2 μM enzyme
Experimental: as §1

[5] = tested on: β-Glucosidase 1A, Thermobifida fusca; assay: as above; assay type: biochemical; details: 100 mM HEPES pH 7.0, 50° C.; 200 μM substrate, 2 μM enzyme
Experimental: as §1

[6] = tested on: Xylosidase 43A, Thermobifida fusca; assay: as above; assay type: biochemical; details: 100 mM sodium citrate pH 5.5, 50° C.
Experimental: as §1

[7] = tested on: Xylosidase 39A, Clostridium stercorarium; assay: as above; assay type: biochemical; details: 100 mM MES pH 6.0, 5 mM CaCl2, 50° C.
Experimental: as §1

[8] = tested on: Xylosidase 3A, Sulfolobus solfataricus; assay: as above; assay type: biochemical; details: 100 mM MES pH 6.0, 50° C.
Experimental: as §1

[9] = tested on: C. japonicum ABFase; assay: Sequencing flowcell assay, recovery of % T call signal after enzymatic cleavage from DNA clusters; assay type: biochemical; details: 30 minutes, 60° C., pH 5.5
Experimental: (§2) A further example examined whether cleavage of 3′-ABF is feasible on DNA clusters on the surface of a sequencing flow cell. To this end, a sequencing assay monitoring the loss and recovery of % T call signal as read-out was carried out using an Illumina NextSeq 2000 instrument with a P2 flow cell. FIG. 4A illustrates the sequencing assay workflow using loss and recovery of % T call signal as readout, including: (1) The % T call signal baseline based on a standard Illumina Green ffT (e.g., ffT-3′-AZM-LN3-AF550POPOso) is first established with a series of SBS cycles using standard SBS chemistry; (2) incorporation by Pol A (SBS polymerase) of unlabeled dTTP with a different 3′-block (i.e., 3′-ABF dTTP or 3′-AOM dTTP used as control) results in the loss of this signal; (3) the % T signal is only partially recovered to around 75% relative to the initial baseline in subsequent standard cycles as around 25% DNA clusters are blocked by the alternative 3′-block which is uncleaved under standard SBS chemistry conditions; (4) injection of the cleavage mix specifically removing this block (i.e., ABFase removing the 3′-ABF or Pd catalyst removing 3′-AOM for the control experiment) followed by standard cycles resulting in the full recovery of the signal. […]

[10] = tested on: Pol A (SBS polymerase); assay: Sequencing flowcell assay, loss of % T call signal on incorporation of unlabeled 3′ blocked dTTP; assay type: biochemical
Experimental: as §2

[11] = tested on: C. japonicus GH51 ABFase; assay: Enzymatic cleavage of 3′-ABF deoxythymidine by GH51 ABFase (HPLC); assay type: biochemical, Cellvibrio japonicus; details: 37° C., sodium citrate pH 5.5; 200 μM substrate, 2 μM enzyme
Experimental: (§3) Candidate arabinofuranosidases (ABFases) were tested for hydrolysis of 3′-ABF. 3′-ABF deoxythymidine was preincubated in […] sodium citrate pH 5.5 or sodium phosphate pH 6.5 at designated temperatures for 5 minutes. Enzyme was added to the reaction so that the final reaction contained 200 μM substrate and 2 μM enzyme. At indicated time points, 50 μL aliquots were removed and quenched with 50 μL 0.1N NaOH prior to analysis by HPLC (YMC Triart C18, 250×4.5 mm, S-5 μm, 12 nm, 0.1M TEAB/100% Acetonitrile) to determine the percentage of enzymatically unblocked nucleotide (or % deprotection).
(§4) Various arabinofuranosidases (ABFases) included CAZy Glycoside Hydrolases family 51 (GH51) from Thermotoga maritima, Cellvibrio japonicus, Clostridium thermocellum, Bacillus subtilis, and Podosporina anserina. The molar ratio of enzyme to 3′-ABF deoxythymidine was 1:100 in all reaction mixes. The reaction using T. maritima ABFase was carried out at 80° C. with a sodium phosphate buffer to ensure a pH of 6.5. The reaction using C. japonicus ABFase was carried out at 37° C. with a sodium citrate buffer to ensure a pH of 5.5. The reaction using C. thermocellum ABFase was carried out at 65° C. with a sodium phosphate buffer to ensure a pH of 6.5. The reaction using B. subtilis ABFase was carried out at 60° C. with a sodium phosphate buffer to ensure a pH of 6.5. […]

[12] = tested on: B. subtilis GH51 ABFase; assay: as above; assay type: biochemical, Bacillus subtilis; details: 60° C., sodium phosphate pH 6.5; 200 μM substrate, 2 μM enzyme
Experimental: as §3, §4

[13] = 3′-ABF blocking group stability testing (staging in incorporation buffer, UPLC); assay type: physicochemical
Experimental: T Nucleoside was blocked with a 3′-O-α-L-arabinofuranoside (3′-ABF,
blocking groups. 1 mL of 3′ blocked T nucleosides at 0.1 mM were made in a solution of 50 mM glycine buffer (pH 9.9), 50 mM NaCl, and 1 mM EDTA. F
These solutions were incubated at 60° C. in a heating block for 1 month. Spontaneous cleavage of the 3′-ABF under incorporation conditions (50 mM Glycine pH 9.8 at 60° C.) was measured by staging 3′-ABF deoxythymine to evaluate the stability of 3′-ABF as a blocking group. At set time points, 40 μL aliquots were taken and analyzed by UPLC (conditions/column) to determine the percentage of blocked nucleotide remaining and the eventual formation of unblocked nucleotide.

[14] = target: C. thermocellum GH51 ABFase (Acetivibrio thermocellus, UniProt A3DIH0); assay: Enzymatic cleavage of 3′-ABF deoxythymidine by GH51 ABFase (HPLC); assay type: biochemical, Clostridium thermocellum; details: 65° C., sodium phosphate pH 6.5; 200 μM substrate, 2 μM enzyme
Chain of C. thermocellum GH51 ABFase (A3DIH0 whole entry): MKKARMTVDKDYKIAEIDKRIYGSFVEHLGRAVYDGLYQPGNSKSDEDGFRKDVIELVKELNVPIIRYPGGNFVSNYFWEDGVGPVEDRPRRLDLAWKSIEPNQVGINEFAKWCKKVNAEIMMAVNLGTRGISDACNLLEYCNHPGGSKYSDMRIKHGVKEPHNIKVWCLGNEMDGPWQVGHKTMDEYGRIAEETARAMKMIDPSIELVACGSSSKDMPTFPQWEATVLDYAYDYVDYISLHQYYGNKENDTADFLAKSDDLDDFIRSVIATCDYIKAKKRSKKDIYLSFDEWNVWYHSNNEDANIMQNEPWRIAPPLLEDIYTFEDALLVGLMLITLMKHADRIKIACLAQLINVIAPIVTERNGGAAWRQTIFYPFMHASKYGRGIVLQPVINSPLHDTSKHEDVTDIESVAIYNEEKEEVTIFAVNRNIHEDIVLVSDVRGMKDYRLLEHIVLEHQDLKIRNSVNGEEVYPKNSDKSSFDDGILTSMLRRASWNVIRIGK
Experimental: as §3, §4

[15] = tested on: T. maritima GH51 ABFase; assay: as above; assay type: biochemical, Thermotoga maritima; details: 80° C., sodium phosphate pH 6.5; 200 μM substrate, 2 μM enzyme
Experimental: as §3, §4

[16] = tested on: P. anserina GH51 ABFase; assay: as above; assay type: biochemical, Podosporina anserina; details: 60° C., sodium citrate pH 5.5; 200 μM substrate, 2 μM enzyme
Experimental: as §3, §4

[17] = tested on: mutant DNA polymerase Pol A; assay: Primer extension assay, incorporation into DNA (33P-labelled primer:template, PAGE); assay type: biochemical
Experimental: The incorporation of the 5′-triphosphate 3′-[(β)-D-glucopyranosyl]thymidine and 5′-triphosphate 3′-[(β)-D-xylopyranosyl]thymidine into DNA by a mutant DNA polymerase Pol A was tested using a primer extension assay. Briefly, a ^33P-labelled DNA primer:template (20 nM) was incubated with the DNA polymerase ([…]) and the nucleotide triphosphates (1 μM) in buffer (50 mM Glycine pH 9.6, 50 mM NaCl, 9 mM MgSO4, 1 mM EDTA) at 60° C. The rate was determined by calculating the percentage of incorporation compared to the initial primer template band and the incorporation results are shown in FIG. 6B.

[18] = 1 μM nucleotide, 50 mM Glycine pH 9.6, 60° C.

SMILES: Cc1cn([C@H]2CC(O[C@H]3OC(CO)[C@@H](O)C(O)C3O)[C@@H](CO)O2)c(=O)[nH]c1=O (stereo partly drawn) [3′-(α)-mannopyranoside thymidine, 3′-[(α)-D-mannopyranosyl]thymidine]
- cleavage of the 3′-mannopyranoside group [1]: not observed
- cleavage of the 3′-mannopyranoside group [2]: not observed

SMILES: Cc1cn([C@H]2CC(O[C@@H]3OC(CO)[C@@H](O)C(O)C3O)[C@@H](CO)O2)c(=O)[nH]c1=O (stereo partly drawn) [3′-(β)-glucopyranoside thymidine, 3′-[(β)-D-glucopyranosyl]thymidine]
- time to complete cleavage of the 3′-glucopyranoside group ([3]; pH 6.5 (100 mM sodium citrate)): approximately 2 hours
- time to complete cleavage of the 3′-glucopyranoside group ([3]; pH 7.5 (100 mM sodium phosphate)): approximately 2 hours
- time to complete cleavage of the 3′-glucopyranoside group [4]: less than 2 minutes
- time to complete cleavage of the 3′-glucopyranoside group [5]: less than 2 minutes

SMILES: Cc1cn([C@H]2CC(O[C@@H]3OC[C@@H](O)C(O)C3O)[C@@H](CO)O2)c(=O)[nH]c1=O (stereo partly drawn) [3′-(β)-xylopyranoside thymidine, 3′-[(β)-D-xylopyranosyl]thymidine]
- cleavage of the 3′-xylopyranoside group [6]: observed
- time to full conversion of the substrate [6]: > 22 h
- cleavage of the 3′-xylopyranoside group [7]: observed
- time to full conversion of the substrate [7]: > 22 h
- cleavage of the 3′-xylopyranoside group [8]: observed
- time to full conversion of the substrate [8]: > 22 h

SMILES: Cc1cn([C@H]2C[C@H](O[C@@H]3O[C@@H](CO)[C@H](O)[C@H]3O)[C@@H](COP(=O)(O)OP(=O)(O)OP(=O)(O)O)O2)c(=O)[nH]c1=O [3′-ABF TTP, 3′-O-(α-L-arabinofuranosyl)-deoxythymidine-5′-triphosphate]
- recovery of the initial % T fluorescence signal after enzymatic cleavage [9]: full recovery
- % T fluorescence signal upon incorporation of the unlabeled nucleotide ([10]; NextSeq 2000, P2 flow cell): fully drops
- % T fluorescence signal recovered when standard SBS cycles resume ([10]; of the initial baseline, before enzymatic cleavage): around 75%

SMILES: Cc1cn([C@H]2C[C@H](O[C@@H]3O[C@@H](CO)[C@H](O)[C@H]3O)[C@@H](CO)O2)c(=O)[nH]c1=O [3′-ABF-dT, 3′-O-(α-L-arabinofuranosyl)-deoxythymidine]
- observed reaction constant kobs [11]: 0.03 s⁻¹
- observed reaction constant kobs [12]: 0.035 s⁻¹
- percentage of remaining blocked nucleoside ([13]; after 31 days of staging at 60° C., 0.1 mM in 50 mM glycine buffer (pH 9.9), 50 mM NaCl, 1 mM EDTA): About 100%
- stability of 3′-blocking group compared to AZM in solution ([13]; higher stability vs 3′-AZM-dT, 60° C., glycine buffer): 80-100 fold
- observed reaction constant kobs [14]: 0.01 s⁻¹
- observed reaction constant kobs [15]: 0.15 s⁻¹
- observed reaction constant kobs [16]: 0.19 s⁻¹

SMILES: Cc1cn([C@H]2CC(O[C@@H]3OC(CO)[C@@H](O)C(O)C3O)[C@@H](COP(=O)(O)OP(=O)(O)OP(=O)(O)O)O2)c(=O)[nH]c1=O (stereo partly drawn) [5′-triphosphate 3′-[(β)-D-glucopyranosyl]thymidine]
- incorporation observed [17, 18]: no detectable incorporation
- substrate for Pol A [17, 18]: is a poor substrate for Pol A

SMILES: Cc1cn([C@H]2CC(O[C@@H]3OC[C@@H](O)C(O)C3O)[C@@H](COP(=O)(O)OP(=O)(O)OP(=O)(O)O)O2)c(=O)[nH]c1=O (stereo partly drawn) [5′-triphosphate 3′-[(β)-D-xylopyranosyl]thymidine]
- substrate for Pol A [17, 18]: is a substrate for Pol A
- rate of incorporation ([17]; compared to 5′-triphosphate 3′-[(α)-L-arabinofuranosyl]thymidine and 5′-triphosphate 3′-allyloxymethyl thymidine, 60° C., pH 9.6): slower
